Results: US20240336653A1, “PEPTIDE COMPOUND TARGETING ELASTIN-DERIVED PEPTIDES AND USE THEREOF” (Shenzhen Turier Biotech Co., Ltd., priority 2020, published 2024)
*1 amine or outer side, *2 acyl side, *3 side chain or, on linkers, in order; H or OH if unused. Primed or numbered codes have the meaning given here. [ ]: non-standard residue; d: D form. The star is where a group is joined. C20 diacid = O=C(O)CCCCCCCCCCCCCCCCCCC(=O)*; γGlu = O=C(O)[C@H](CCC(=O)[*:2])N[*:1]; Iva = CC[C@](C)(N)C(=O)O; PEG2′ = not defined here

Key:
LX2 cells = test: Activity evaluation in LX2 cell model (α-SMA protein expression); format: cell-based, human; conditions: 1.0 μM and 10.0 μM, 48 hours incubation, GAPDH internal reference, FIG. 1
From the text: In LX2 cell model (which can be directly used as the evaluation model of hepatic fibrosis cells in vitro, because LX2 cells are human liver activated stellate cells. The LX2 cells are purchased from China Center for Type Culture Collection of the Chinese Academy of Sciences, Shanghai, China), the anti-fibrosis activities of peptide compounds 1-25 are preliminarily screened, and the expression of the marker α-SMA protein of myofibroblast activation is detected. The peptide compounds 1-25 is subjected to cell incubation for 48 hours by using two concentrations (1.0 μM and 10.0 μM). The control group is given the same volume of Dulbecco's modified Eagle medium (DMEM) (purchased from Gibco in the United States), and GAPDH (purchased from TransGen Biotech) as the internal reference, α-actin (α-SMA) is a symbolic feature that distinguishes myoblast cells from myofibroblasts.

[1] = test system: CCl4 induced hepatic fibrosis; test: Carbon tetrachloride (CCl4) induced hepatic fibrosis model in mice; format: in vivo, C57BL/6J mice; conditions: 100.0 μg/kg intraperitoneal, 3 weeks of administration; for aggregation of inflammatory cells in the liver (HE staining) / hepatic fibrosis of mice: FIG. 2; for expression of Collagen I in the liver (immunohistochemistry): FIG. 3; for collagen deposition in the liver (Sirius red staining): FIG. 4
Procedure: Molding method: 72 male C57BL/6J mice, male, 18-22 g in weight and 8 weeks old, provided by Laboratory Animal Center, Sun Yat-sen University, randomly divided into 12 groups: 1) control group (Oil)+saline, intraperitoneal injection, n=6; 2) model control group (CCl4)+saline, intraperitoneal injection, n=6; administration of CCl4 to mice once every three days for 6 weeks; 3) model administration group (CCl4)+100.0 μg/kg series of compounds (group 10), intraperitoneal injection, n=6/group. The mice in the control group are injected with corn oil at the same volume and frequency according to the administration volume of 20% CCl4 at the weight of 5.0 μL/g. Administration frequency: administration of CCl4 to mice once every three days for 6 weeks. After 3 weeks of administration of CCl4 to mice in the model administration group, peptide compounds 1, 5, 7, 11, 12, 13, 17, 18, 21 and 22 are administered for 3 weeks from the 4th week. CCl4 and Oil are purchased from Shanghai Aladdin Biochemical Technology Co., Ltd.
In the CCl4 induced hepatic fibrosis model, the manifestations are: inflammatory cell infiltration around the central vein area, hydropic degeneration of hepatic cells, and increased accumulation of collagen fibers in the portal area and the hepatic interlobular septum. After three weeks of administration, the mice are treated and sampled. Blood is taken from the retrobulbar vein for detection of serological indicators, and liver tissue is taken for pathological analysis.
(§1) Hematoxylin-eosin (H&E) staining: paraffin embedded tissue sections are taken and baked at 60° C. for 1 h. Dewaxing and hydration: xylene for 20 minutes→xylene for 20 minutes→absolute alcohol for 15 minutes→absolute alcohol for 15 minutes→95% alcohol for 10 minutes→90% alcohol for 5 minutes→80% alcohol for 5 minutes. Staining: hematoxylin for 7 minutes→rinsing with tap water→differentiation with 1% hydrochloric acid alcohol for 1 s→rinsing with tap water→eosin staining for 15 s-20 s→rinsing with tap water. Dehydration and transparency: 75% alcohol for 1 s→85% alcohol for 1 s→95% alcohol for 1 s→100% alcohol for 1 s→xylene for Is→xylene for 1 s. The sections are aired for 30 minutes and sealed with gum.
Sirius red staining: drying and dewaxing; standing for 5.0 minutes in double distilled water; Sirius red staining for 60-80 minutes in a dark room; washing for 5 s with 0.5% glacial acetic acid; dehydration and transparency, sealing and taking photos.
Immunohistochemistry: drying sections, dewaxing, and then soaking in double distilled water for 5 minutes. Antigen retrieval: putting the shelf where pathological sections are placed into a beaker containing citric acid buffer (PH=6.0), and keeping it under high temperature and pressure for 15 minutes; taking out the beaker and letting it stand at room temperature until the temperature drops to the room temperature, then taking out the sections and putting them into 3.0% hydrogen peroxide for 10 minutes to block the endogenous peroxidase activity, and then washing them with PBS for three times, 5 minutes each time; sealing the tissues with 1.0% BSA for 1 h; removing 1.0% BSA, adding Collagen I antibody on the tissue according to the proportion recommended in the Description, and staying overnight at 4° C.; taking out the pathological sections next day, adding the second antibody with horseradish peroxidase after the room temperature is restored, incubating it at 37° C. for 60 minutes, and then use DAB (diaminobenzidine) ([…], USA) to develop color; and re-staining with hematoxylin staining solution, washing with tap water for 5 minutes, differentiating with 1% hydrochloric acid alcohol, then washing with tap water for 5 minutes again, dehydrating, airing, sealing, and taking photos (H&E staining solution and Sirius red staining solution are purchased from Sangon Biotech (Shanghai) Co., Ltd., and Collagen I antibody is purchased from CST Corporation).

[2] = test system: bleomycin induced pulmonary fibrosis; test: Bleomycin (BLM) induced pulmonary fibrosis model in mice; format: in vivo, C57BL/6J mice; conditions: 150 μg/kg daily intraperitoneal, 14 days, FIG. 5; for degree of pulmonary fibrosis (H&E staining and Masson staining): compared with bleomycin control group; for fibronectin in pulmonary parenchyma (α-SMA and Collagen1 immunohistochemistry): compared with bleomycin group
Procedure: (§2) Molding method: 78 male C57BL/6J mice, 16-18 g in weight and 6-8 weeks old, provided by Laboratory Animal Center, Sun Yat-sen University, randomly divided into 13 groups: 1) normal control group (Normal), n=6; 2) sham-operated saline control group (Saline), n=6; 3) bleomycin model group (BLM), n=6; and 4) model treatment group: administration of 150 μg/kg series compounds to mice, 10 groups in total, n=6/group. On the 7th day after the operation of bleomycin induced pulmonary fibrosis in mice, mice in the model treatment group are treated with drugs (administration frequency: daily administration/150 μg/kg, intraperitoneal injection). Samples are taken 14 days after administration, and pathological observations are recorded.
(§3) The bleomycin (purchased from TCI Shanghai)) induced pulmonary fibrosis model manifests the following pathological features: bronchiectasis, hydropic degeneration of bronchial epithelial cells, obvious edema and widening of alveolar interstitium, and deposition of a large number of fibroblasts and collagen tissue. The alveolar structure almost completely disappears, filled with fibrous connective tissue, and accompanied by inflammatory cell infiltration. After 14 days of administration, the mice in the model treatment group are treated and sampled. Blood is taken from the retrobulbar vein for detection of serological indicators, and […] is taken for pathological analysis.
as §1, with “H&E” for “Hematoxylin-eosin (H&E)”, “1 s→xylene” for “Is→xylene”
Masson staining: drying and dewaxing; mordanting; adding celestine blue staining solution for 2-3 min, and washing with water; adding Mayer hematoxylin staining solution and washing with water; differentiating with acid alcohol differentiation liquid for several seconds, and washing with tap water; adding ponceau magenta staining solution and washing with distilled water; treating with phosphomolybdic acid solution; adding aniline blue staining solution for 5 min; treating with weak acid solution for 2 min; dehydration and transparency, airing and sealing with gum.
Immunohistochemistry: drying sections, dewaxing, and then soaking in double distilled water for 5 minutes. […]

MMP9 = test: ELISA of MMP9 in serum of mice of the bleomycin model; format: in vivo, C57BL/6J mice; conditions: BLM mice, 150 μg/kg daily intraperitoneal, 14 days, FIG. 6-A
Procedure: as §2, §3
(§4) The occurrence and development of fibrotic diseases are related to TGF-β and MMP-9 induced EMT process. Matrix metalloproteinases (MMPs) are matrix degrading proteases that degrade all components of extracellular matrix. They participate in the pathophysiological process of pulmonary fibrosis, play an important role in the abnormal remodeling of extracellular matrix and destruction of basement membrane, and promote the recruitment of inflammatory cells and fibroblasts. The increased expression of MMP-9 in pulmonary fibrosis animal models and patients, higher than the normal MMP-9 level, may destroy normal tissue structure and increase the migration of inflammatory cells to the disease site. In order to further explore the inhibitory mechanism of polypeptide drugs on bleomycin induced pulmonary fibrosis, we detect the expression of TGFβ, MMP9 cell factors in serum of mice in each group by ELISA. […] We speculate that its mechanism should be related to TGF-β.

TGF-β = test: ELISA of TGFβ in serum of mice of the bleomycin model; format: in vivo, C57BL/6J mice; conditions: BLM mice, 150 μg/kg daily intraperitoneal, 14 days, FIG. 6-B
Procedure: as §2, §3, §4

Question: Which “inhibiting and improving the activity of α-SMA (expression of α-SMA protein)” value (LX2 cells) does the source give for “(PEG2-PEG2-γGlu-CO(CH2)18CO2H)-Val-Val-Gly-Ser-Pro-Ser-Ala-Gln-Asp-Glu-Ala-Ser-Pro-Leu-NH2 ({C20 diacid-γGlu-PEG2′-PEG2′}-VVGSPSAQDEASPL-NH2) [Compound 1]” here?
Answer: better effects on inhibiting and improving the activity of α-SMA

Question: And the “aggregation of inflammatory cells in the liver (HE staining)” value [1]?
Answer: significantly improved

Question: And the “hepatic fibrosis of mice” value [1]?
Answer: significantly improved

Question: And the “expression of Collagen I in the liver (immunohistochemistry)” value [1]?
Answer: significant therapeutic improvement

Question: What about the “collagen deposition in the liver (Sirius red staining)” value [1] of the same substance?
Answer: significant therapeutic improvement

Question: What about the “degree of pulmonary fibrosis (H&E staining and Masson staining)” value [2] of the same substance?
Answer: significantly reduced

Question: And the “fibronectin in pulmonary parenchyma (α-SMA and Collagen1 immunohistochemistry)” value [2]?
Answer: significantly less than that in bleomycin group

Question: And the “concentration of MMP9 in serum of mice” value (MMP9)?
Answer: significantly reduce

Question: And the “concentration of TGF-β in serum of mice” value (TGF-β)?
Answer: significantly reduce

Question: How did the “inhibiting and improving the activity of α-SMA (expression of α-SMA protein)” value (LX2 cells) turn out when “(PEG2-PEG2-γGlu-CO(CH2)18CO2H)-Val-Iva-Gly-Ser-Pro-Ser-Ala-Gln-Glu-Glu-Ala-Ser-Pro-Ala-NH2 ({C20 diacid-γGlu-PEG2′-PEG2′}-V[Iva]GSPSAQEEASPA-NH2) [Compound 7]” was run?
Answer: better effects on inhibiting and improving the activity of α-SMA

Question: And the “aggregation of inflammatory cells in the liver (HE staining)” value [1]?
Answer: significantly improved

Question: What about the “hepatic fibrosis of mice” value [1] of the same substance?
Answer: significantly improved

Question: What about the “expression of Collagen I in the liver (immunohistochemistry)” value [1] of the same substance?
Answer: significant therapeutic improvement

Question: And the “collagen deposition in the liver (Sirius red staining)” value [1]?
Answer: significant therapeutic improvement

Question: What about the “degree of pulmonary fibrosis (H&E staining and Masson staining)” value [2] of the same substance?
Answer: significantly reduced

Question: And the “fibronectin in pulmonary parenchyma (α-SMA and Collagen1 immunohistochemistry)” value [2]?
Answer: significantly less than that in bleomycin group

Question: What about the “concentration of MMP9 in serum of mice” value (MMP9) of the same substance?
Answer: significantly reduce

Question: What about the “concentration of TGF-β in serum of mice” value (TGF-β) of the same substance?
Answer: significantly reduce
